PMC8485799, “Synthesis and Antiprotozoal Profile of 3,4,5‐Trisubstituted Isoxazoles” (ChemistryOpen, 2021)

Key:
[1] = test system: promastigote forms of Leishmania amazonensis (WHOM/BR/75/JOSEFA strain); assay: Antiproliferative assay (XTT), promastigote forms, 72 h; format: cell-based; settings: for IC50: Leishmania amazonensis, promastigote form, 72 h, XTT, read-out: L. amazonensis IC50; for SIL-F, selectivity index (Fibroblast CC50/L. amazonensis IC50): fibroblast vs promastigote; for SIL-M, selectivity index (Macrophages CC50/L. amazonensis IC50): macrophages vs promastigote
Protocol: (§1) The antiproliferative activity was determined in promastigote forms of Leishmania amazonensis (WHOM/BR/75/JOSEFA strain) and epimastigote forms of Trypanosoma cruzi (Y strain). The promastigote forms of L. amazonensis were cultured in Warren medium (brain heart infusion, hemin, and folic acid; pH 7.4) supplemented with 10 % fetal bovine serum (FBS) at 25 °C. The epimastigote forms of T.cruzi were cultured in LIT medium (liver infusion tryptose; hemin, and folic acid; pH 7.4) supplemented with 10 % FBS at 28 °C. Cytotoxicity in mammalian cells was determined in fibroblast line (L929) and macrophages (J774 A1). Fibroblasts were cultured in DMEM medium (pH 7.2) supplemented with 10 % FBS at 37 °C in a 5 % CO2 atmosphere. Macrophages were cultured in RPMI‐1640 (pH 7.2) medium supplemented with 10 % FBS at 37 °C in a 5 % CO2 atmosphere.
(§2) Stock solutions of the compounds were prepared in DMSO and then diluted in the respective medium.
(§3) Promastigote forms (1×10^6 parasites.mL^−1) were cultured in 96‐well plates in the presence and absence of different concentrations of compounds diluted in Warren medium supplemented with 10 % FBS and incubated for 72 h. The epimastigote forms (1×10^6 parasites.mL^−1) were cultured in 96‐well plates in the presence and absence of different concentrations of compounds diluted in LIT medium supplemented with 10 % FBS and incubated for 96 h. After treatment, the parasites were incubated with a solution of 2,3‐bis(2‐methoxy‐4‐nitro‐5‐sulfophenyl)‐2H‐tetrazolium‐5‐carboxanilide (XTT; 0.5 mg.mL^−1) and phenazine methanesulfonate activator (PMS; 0.06 mg.mL^−1) in PBS for 4 h. Then, the absorbance was read in a microplate reader (Bio Tek‐Power Wave XS) at 450 nm.[20] The percentage of viable parasites was calculated in relation to the control in order to determine the concentration that inhibits 50 % of the protozoa (IC50). The control groups of each experiment received the same experimental conditions as the treated groups (cell concentration used, temperature, and incubation time).

[2] = test system: epimastigote forms of Trypanosoma cruzi (Y strain); assay: Antiproliferative assay (XTT), epimastigote forms, 96 h; format: cell-based; settings: for IC50: Trypanosoma cruzi, epimastigote form, 96 h, XTT, read-out: T. cruzi IC50; for SIT-F, selectivity index (Fibroblast CC50/T. cruzi IC50): fibroblast vs epimastigote; for SIT-M, selectivity index (Macrophages CC50/T. cruzi IC50): macrophages vs epimastigote
Protocol: as §1, §2, §3

[3] = Cytotoxicity assay in mammalian cells (MTT), fibroblasts, 72 h; format: cell-based; settings: mouse, L929 fibroblast cells, pH 7.2; 50 % inhibition of fibroblast growth, 72 h, MTT
Protocol: as §1, §2
(§4) Fibroblast cell (2.5×10^5 cells.mL^−1) suspensions were prepared in DMEM medium supplemented with 10 % FBS and added to 96‐well plates. Then, the plates were incubated at 37 °C in a CO2 atmosphere for 24 h to obtain confluent cell growth. After incubation, cells were treated with different concentrations of compounds diluted in DMEM for 72 h or left untreated. Macrophage (5×10^5 cells.mL^−1) suspensions were prepared in RPMI‐1640 medium supplemented with 10 % FBS and added to 96‐well plates. Then, the plates were incubated at 37 °C in a CO2 atmosphere for 24 h to obtain confluent cell growth. After incubation, cells were treated with different concentrations of compounds diluted in RPMI‐1640 for 48 h or left untreated. After treatment, the medium was removed, and cells were incubated with MTT (2 mg.mL^−1) for 4 h. Then, DMSO was added for solubilization of the formazan and analyzed with a reading microplate reader (BIO‐TEK PowerWave XS spectrophotometer) at […].[20] The percentage of viable cells was calculated in relation to the untreated control group to determine the cytotoxic concentration in 50 % of the cells (CC50). The control groups of each experiment received the same experimental conditions as the treated groups (cell concentration used, temperature, CO2, and incubation time).

[4] = Cytotoxicity assay in mammalian cells (MTT), macrophages, 48 h; format: cell-based; settings: mouse, J774 A1 macrophages, pH 7.2; 50 % inhibition of macrophages growth, 48 h, MTT
Protocol: as §1, §2, §4

Structure (SMILES) | IC50 [2] [µM] | melting point [°C] | IC50 [1] [µM] | SIL-F, selectivity index (Fibroblast CC50/L. amazonensis IC50) [1] | SIL-M, selectivity index (Macrophages CC50/L. amazonensis IC50) [1] | SIT-F, selectivity index (Fibroblast CC50/T. cruzi IC50) [2] | SIT-M, selectivity index (Macrophages CC50/T. cruzi IC50) [2] | CC50 at 72 h [3] [µM] | CC50 at 48 h [4] [µM]
COc1ccc(NCc2c(C(=O)N/N=C/c3ccccc3)noc2-c2ccc(Cl)cc2)cc1 [4 dc] | 65.9 ± 6.1 | 176.3 to 177.1 | 54.3 ± 2.7 | 5.45 | 4.50 | 4.49 | 3.71 | 296 ± 9 | 245 ± 7.9
O=C(N/N=C/c1ccccc1)c1noc(-c2ccc(Cl)cc2)c1CNc1ccccc1 [4 da] | 49.7 ± 2.2 | 189.3 to 191.8 | 48.6 ± 2.8 | 5.46 | 4.85 | 5.34 | 4.74 | 266 ± 5.9 | 236 ± 9.6
COc1ccc(NCc2c(C(=O)N/N=C/c3ccc(-c4cccs4)s3)noc2-c2ccc(Cl)cc2)cc1 [6 dc] | 30.5 ± 1.6 | 199.9 to 202.7 | 32.7 ± 3 | 12.16 | 9.45 | 13.0 | 10.1 | 398 ± 7.8 | 309 ± 8
NNC(=O)c1noc(-c2ccc(F)cc2)c1CNc1ccc(Cl)cc1 [3 cb] | > 200 | 178.1 to 181.2 | 172 ± 10.4 | 4.67 | 4.04 | – | – | 802 ± 11.4 | 694 ± 10.7
O=C(N/N=C/c1ccccn1)c1noc(-c2ccc([N+](=O)[O-])cc2)c1CNc1ccccc1 [5 aa, 3‐[(2E)‐N'‐(2‐pyridinylmethylene)hydrazinecarbonyl]‐4‐(phenyl)aminomethyl‐5‐(4‐nitrophenyl)isoxazole] | 123 ± 10.9 | 223.8 to 225.5 | 126 ± 2.1 | 3.24 | 3.09 | 3.31 | 3.16 | 407.3 ± 3.9 | 388 ± 7.9
COc1ccc(NCc2c(C(=O)N/N=C/c3ccc(-c4cccs4)s3)noc2-c2ccc([N+](=O)[O-])cc2)cc1 [6 ac] | 52.5 ± 2.9 | – | 48.9 ± 7.1 | 4.72 | 3.75 | 4.40 | 3.50 | 231 ± 5.9 | 184 ± 3
O=C(N/N=C/c1ccc(-c2cccs2)s1)c1noc(-c2ccccc2)c1CNc1ccccc1 [6 ba] | 52.4 ± 2.9 | – | 46.9 ± 3 | 4.45 | 4.19 | 3.98 | 3.75 | 209 ± 2.9 | 196 ± 4.4
O=C(N/N=C/c1ccc(-c2cccs2)s1)c1noc(-c2ccc(Cl)cc2)c1CNc1ccc(Cl)cc1 [6 db] | 33.6 ± 4.8 | – | 38.5 ± 4.6 | 8.04 | 7.81 | 9.21 | 8.94 | 310 ± 3.1 | 300 ± 4.2
O=C(N/N=C/c1ccc(-c2cccs2)s1)c1noc(-c2ccc(F)cc2)c1CNc1ccccc1 [6 ca] | 42.7 ± 5.6 | – | 34.6 ± 2.4 | 11.2 | 8.92 | 9.07 | 7.22 | 388 ± 4.7 | –
COc1ccc(NCc2c(C(=O)N/N=C/c3ccccn3)noc2-c2ccc([N+](=O)[O-])cc2)cc1 [5 ac] | > 200 | – | > 200 | – | – | – | – | 801 ± 10.4 | 723.6 ± 3

The next compounds have a lower IC50 [2] than those just listed; values first:

IC50 [2] [µM] | melting point [°C] | Structure (SMILES) | IC50 [1] [µM] | SIL-F, selectivity index (Fibroblast CC50/L. amazonensis IC50) [1] | SIL-M, selectivity index (Macrophages CC50/L. amazonensis IC50) [1] | SIT-F, selectivity index (Fibroblast CC50/T. cruzi IC50) [2] | SIT-M, selectivity index (Macrophages CC50/T. cruzi IC50) [2] | CC50 at 72 h [3] [µM] | CC50 at 48 h [4] [µM]
17.9 ± 0.7 | 210.4 to 212.4 | COc1ccc(NCc2c(C(=O)N/N=C/c3ccccn3)noc2-c2ccc(Cl)cc2)cc1 [5 dc] | 17.4 ± 2 | 6.17 | 5.67 | 6.00 | 5.51 | 107 ± 2.2 | 98.6 ± 2.3
19.7 ± 0.9 | – | COc1ccc(NCc2c(C(=O)N/N=C/c3ccccn3)noc2-c2ccc(F)cc2)cc1 [5 cc] | 18 ± 2.5 | 16.16 | 14.18 | 14.76 | 12.96 | 291 ± 4.7 | 255 ± 8.1
24.7 ± 2.9 | – | O=C(N/N=C/c1ccccn1)c1noc(-c2ccc([N+](=O)[O-])cc2)c1CNc1ccc(Cl)cc1 [5 ab] | 26 ± 2.1 | 3.88 | 3.55 | 4.08 | 3.81 | 101 ± 4.4 | 94.2 ± 3.9
19.4 ± 1.1 | – | COc1ccc(NCc2c(C(=O)N/N=C/c3ccccn3)noc2-c2ccccc2)cc1 [5 bc] | 17.9 ± 3.7 | 10.3 | 9.88 | 9.50 | 9.11 | 184 ± 5.1 | 177 ± 9.8
20.4 ± 3.6 | – | O=C(N/N=C/c1ccc(-c2cccs2)s1)c1noc(-c2ccc(F)cc2)c1CNc1ccc(Cl)cc1 [6 cb] | 19.7 ± 2.6 | 10.9 | 10.6 | 10.5 | 10.3 | 215 ± 8.9 | 210 ± 3.1
18.7 ± 1.4 | – | COc1ccc(NCc2c(C(=O)N/N=C/c3ccccc3)noc2-c2ccc([N+](=O)[O-])cc2)cc1 [4 ac] | 14.5 ± 2.2 | 16.63 | 14.43 | 12.89 | 11.19 | 241 ± 3.8 | 209 ± 8.5
22.8 ± 3 | – | COc1ccc(NCc2c(C(=O)N/N=C/c3ccc(-c4cccs4)s3)noc2-c2ccc(F)cc2)cc1 [6 cc] | 20.6 ± 1.7 | 15.32 | 12.97 | 13.84 | 11.71 | 316 ± 10.8 | 267 ± 7.9
13.8 ± 1.5 | – | O=C(N/N=C/c1ccc(-c2cccs2)s1)c1noc(-c2ccc([N+](=O)[O-])cc2)c1CNc1ccc(Cl)cc1 [6 ab] | 12.7 ± 1.1 | 9.12 | 7.50 | 8.39 | 6.91 | 116 ± 5.5 | 95.3 ± 5.3
